We go through five molecules from patent publication US6656956B2, “Benzimidazole derivatives, processes for preparing them and their use as pharmaceutical compositions” (Boehringer Ingelheim Pharma KG, priority 2001, dated 2003).

Structures can show the parent of a compound that is named as a salt.

The target in this experiment is T1, rh beta tryptase (Homo sapiens, UniProt Q15661).
T1 construct: purchased Promega
T1 sequence (Q15661 31-275): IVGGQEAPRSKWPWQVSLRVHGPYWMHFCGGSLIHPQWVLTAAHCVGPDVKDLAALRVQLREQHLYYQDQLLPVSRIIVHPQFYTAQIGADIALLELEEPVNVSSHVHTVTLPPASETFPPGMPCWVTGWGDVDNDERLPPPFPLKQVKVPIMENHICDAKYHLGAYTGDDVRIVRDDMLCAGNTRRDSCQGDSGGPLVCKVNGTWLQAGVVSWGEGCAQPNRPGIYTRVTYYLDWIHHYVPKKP
Nature of the experiment: tryptase inhibition in vitro test (cleavage of N-p-tosyl-Gly-Pro-Lys-para-nitroaniline, p-nitroaniline measured at 405 nm). The note with it: rh beta tryptase 0.91 U/ml, substrate 0.6 mM, Tris HCl buffer with calcium and heparin, pH 7.4, 37° C., 5 minutes incubation; read-out: Tryptase-inhibiting activity. The format is biochemical. In outline: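 Chromogenic assay in 100 mM Tris HCl pH 7.4 with 5 mM calcium and […], 0.91 U/ml enzyme, 0.6 mM substrate. Compound preincubated 5 min, then p-nitroaniline at 405 nm after 5 min, 37° C. Screening at 10 μM as % inhibition; IC50 determined when inhibition exceeded 70%.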
`Cn1c(CCc2ccc(C(=N)N)cc2)nc2cc(N(Cc3ccncc3)C(=O)CN3CCC(Nc4ccccn4)CC3)ccc21` [Example 46, N-{2-[2-(4-Amidinophenyl)-ethyl]-1-methyl-benzimidazol-5-yl}-N-[4-pyridylmethyl]-2-[4-(2-pyridylamino)-piperid-1-yl]-acetamide, dihydrochloride]: the IC50 lay in the range of 0.004 to 0.03 µM.
`CN(C(=O)CN1CCC(Nc2ccccn2)CC1)c1ccc2c(c1)nc(CCc1ccc(C(=N)N)cc1)n2C` [Example 28, N-{2-[2-(4-Amidinophenyl)-ethyl]-1-methyl-benzimidazol-5-yl}-N-methyl-2-[4-(2-pyridylamino)-piperid-1-yl]-acetamide, dihydrochloride]: the IC50 lay within 0.004 to 0.03 µM.
As to `CN(C(=O)CN1CCC(Nc2ccc(C(F)(F)F)cc2Br)CC1)c1ccc2c(c1)nc(CCc1ccc(C(=N)N)cc1)n2C` [Example 67, N-{2-[2-(4-Amidinophenyl)-ethyl]-1-methyl-benzimidazol-5-yl}-N-methyl-2-[4-(2-bromo-4-trifluoromethylamino)-piperid-1-yl]-acetamide, dihydrochloride], the IC50 was in the range of 0.004 to 0.03 µM.
Turning to `Cn1c(CCc2ccc(C(=N)N)cc2)nc2cc(N(Cc3cccc4ccccc34)C(=O)NC3(Cc4ccccc4)CCNCC3)ccc21` [Example 77, N-{2-[2-(4-Amidinophenyl)-ethyl]-1-methyl-benzimidazol-5-yl}-N-[naphth-1-ylmethyl]-N′-[4-(benzyl)-piperidin-4-yl)-urea, hydrochloride], the IC50 was 0.004 to 0.03 µM.
The value for `Cn1c(CCc2ccc(C(=N)N)cc2)nc2cc(N(Cc3cccc4ccccc34)C(=O)CN3CCC(Nc4ccc(O)cc4)CC3)ccc21` [Example 18, N-{2-[2-(4-Amidinophenyl)-ethyl]-1-methyl-benzimidazol-5-yl}-N-[naphth-1-ylmethyl]-2-[4-(4-hydroxyphenylamino)-piperid-1-yl]-acetamide, dihydrochloride] was 0.004 to 0.03 µM.
